Laboratory results from article PMC3091528 (Glycobiology, 2011).

Key:
[1] = molecular target: T1, mouse LSECtin CRD (Mus musculus, UniProt Q8BNX1); type: binding
T1 sequence (Q8BNX1 161-294): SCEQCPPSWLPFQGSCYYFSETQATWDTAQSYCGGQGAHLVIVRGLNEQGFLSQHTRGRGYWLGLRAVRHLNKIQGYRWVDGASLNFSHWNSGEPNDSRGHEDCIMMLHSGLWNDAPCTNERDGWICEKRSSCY

[2] = molecular target: T2, human LSECtin CRD (Homo sapiens, UniProt Q6UXB4); type: binding
T2 sequence (Q6UXB4 165-293 limits assumed): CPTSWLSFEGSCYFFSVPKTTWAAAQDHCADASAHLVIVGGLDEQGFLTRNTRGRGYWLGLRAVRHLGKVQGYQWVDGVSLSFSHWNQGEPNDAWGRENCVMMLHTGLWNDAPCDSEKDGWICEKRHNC

CC(=O)N[C@H]1[C@H](O[C@@H]2C(O)O[C@H](CO)[C@@H](O)[C@@H]2O)O[C@H](CO)[C@@H](O)[C@@H]1O (some centres unmarked) [GlcNAcβ1-2Man]
Ki [1]: 10.2 ± 0.8 µM | Ki [2]: 1.1 ± 0.5 µM
